Data as given in patent US9771334B2, “Triketone compound and preparation method and use thereof” (SHANDONG CYNDA CHEMICAL CO., LTD., priority 2013, dated 2017).

Columns and labels:
Assay in all cases: Herbicidal activity, pot culture method (primary and secondary screening test)
Type in all cases: in vivo
Details in all cases: primary screening, pot culture, 150 g/ha, sprayed at 3-leaf stage, result 15 days later
[1] = test system: abutilon theophrasti
From the text: (§1) This test example is for describing the herbicidal activity inhibition ratio (%) (the dose is 150 g/ha) of the compound with a structure shown in Formula (I). Primary screening test (pot culture method): The test targets are abutilon theophrasti, digitaria sanguinalis, amaranthus retroflexus, echinochloa crusgalli, eclipta prostrata and setaria viridis. Take flowerpots with an inner diameter of 6 cm, put composite soil (vegetable garden soil:seedling matrix=1:2, v/v) into them till 3⁄4 of flowerpot height, directly sow the above six weed targets (budding rate>85%), cover them with 0.2 cm thick soil, and keep them for future use when the weeds grow to 3-leaf stage. Each compound is dissolved in N,N-dimethylformamide at a dose of 150 g/ha and diluted with distilled water into a 0.2 g/L solution. The solution is sprayed through an automatic spray tower. After the solution on weed leaves is aired dry, the flowerpots are moved into a greenhouse for cultivation. The result is investigated 15 days later. By the same method adopted in primary screening test, a secondary screening test is done on some typical compounds, such as: 5, 6, 20, 21, 23, 34, 47, 65, 66, 70 and 91 at a reduced dose, and the test result is compared with mesotrione which is commercially available and has a good herbicidal effect. The test method is same as that adopted in primary screening test. Mesotrione is bought from Hubei […] Chemical Co., Ltd.

[2] = test system: amaranthus retroflexus
From the text: as §1

[3] = test system: echinochloa crusgalli
From the text: as §1

[4] = test system: setaria viridis
From the text: as §1

[5] = test system: digitaria sanguinalis
From the text: as §1

[6] = test system: eclipta prostrata
From the text: as §1

Structure (SMILES)	herbicidal activity inhibition ratio (%), Abutilon theophrasti [1]	herbicidal activity inhibition ratio (%), Amaranthus retroflexus [2]	herbicidal activity inhibition ratio (%), Echinochloa crusgalli [3]	herbicidal activity inhibition ratio (%), Setaria viridis [4]	herbicidal activity inhibition ratio (%), Digitaria sanguinalis [5]	herbicidal activity inhibition ratio (%), Eclipta prostrata [6]
Cn1c(=O)n(-c2ccc(Cl)cc2)c(=O)c2cc(C(=O)C3=C(O)CCCC3=O)ccc21 [Compound 1, 3-(4-chlorphenyl)-6-[(2-hydroxy-6-oxo-1-cyclohexenyl)carbonyl]-1-methylquinazoline-2,4(1H,3H)-dione]	90%	90%	90%	100%	90%	85%
Cn1c(=O)n(-c2ccc(Cl)cc2)c(=O)c2cc(C(=O)C3=C(O)CC(C)(C)CC3=O)ccc21 [Compound 2]	100%	95%	80%	80%	90%	75%
Cn1c(=O)n(-c2cccc(Cl)c2)c(=O)c2cc(C(=O)C3=C(O)CCCC3=O)ccc21 [Compound 3]	80%	100%	80%	100%	70%	80%
Cn1c(=O)n(-c2cccc(Cl)c2)c(=O)c2cc(C(=O)C3=C(O)CC(C)(C)CC3=O)ccc21 [Compound 4]	100%	100%	85%	90%	100%	90%
Cn1c(=O)n(-c2cc(Cl)cc(Cl)c2)c(=O)c2cc(C(=O)C3=C(O)CCCC3=O)ccc21 [Compound 7]	100%	90%	80%	80%	70%	60%
Cn1c(=O)n(-c2cc(Cl)cc(Cl)c2)c(=O)c2cc(C(=O)C3=C(O)CC(C)(C)CC3=O)ccc21 [Compound 8]	0%	100%	75%	85%	90%	80%
Cn1c(=O)n(-c2ccc(F)cc2)c(=O)c2cc(C(=O)C3=C(O)CCCC3=O)ccc21 [Compound 9]	100%	100%	85%	100%	75%	95%
Cn1c(=O)n(-c2cccc(F)c2)c(=O)c2cc(C(=O)C3=C(O)CCCC3=O)ccc21 [Compound 10]	100%	85%	85%	80%	75%	80%
Cn1c(=O)n(-c2cccc(F)c2)c(=O)c2cc(C(=O)C3=C(O)CC(C)(C)CC3=O)ccc21 [Compound 11]	85%	85%	85%	80%	95%	85%
Cn1c(=O)n(-c2ccccc2F)c(=O)c2cc(C(=O)C3=C(O)CCCC3=O)ccc21 [Compound 12]	85%	80%	80%	100%	80%	80%
Cn1c(=O)n(-c2ccccc2F)c(=O)c2cc(C(=O)C3=C(O)CC(C)(C)CC3=O)ccc21 [Compound 13]	100%	100%	90%	100%	90%	90%
Cc1ccc(-n2c(=O)c3cc(C(=O)C4=C(O)CCCC4=O)ccc3n(C)c2=O)cc1 [Compound 14]	75%	100%	75%	75%	75%	75%
Cc1ccc(-n2c(=O)c3cc(C(=O)C4=C(O)CC(C)(C)CC4=O)ccc3n(C)c2=O)cc1 [Compound 15]	60%	70%	70%	75%	75%	60%
Cc1ccc(-n2c(=O)c3cc(C(=O)C4=C(O)CC(C)CC4=O)ccc3n(C)c2=O)cc1 (stereo not drawn) [Compound 16]	70%	70%	85%	100%	100%	75%
Cc1cccc(-n2c(=O)c3cc(C(=O)C4=C(O)CCCC4=O)ccc3n(C)c2=O)c1 [Compound 17]	70%	100%	70%	100%	75%	95%
Cc1cccc(-n2c(=O)c3cc(C(=O)C4=C(O)CC(C)(C)CC4=O)ccc3n(C)c2=O)c1 [Compound 18]	75%	100%	70%	85%	90%	75%
Cc1cccc(-n2c(=O)c3cc(C(=O)C4=C(O)CC(C)CC4=O)ccc3n(C)c2=O)c1 (stereo not drawn) [Compound 19]	75%	100%	70%	100%	85%	85%
Cn1c(=O)n(-c2ccc(F)cc2)c(=O)c2cc(C(=O)C3=C(O)CC(C)(C)CC3=O)ccc21 [Compound 22]	100%	100%	80%	95%	95%	90%
Cn1c(=O)n(-c2cccc(Br)c2)c(=O)c2cc(C(=O)C3=C(O)CC(C)(C)CC3=O)ccc21 [Compound 24]	93%	80%	30%	10%	60%	83%
Cn1c(=O)n(-c2ccc(Br)cc2)c(=O)c2cc(C(=O)C3=C(O)CCCC3=O)ccc21 [Compound 25]	80%	95%	80%	35%	80%	83%
Cn1c(=O)n(-c2ccc(Br)cc2)c(=O)c2cc(C(=O)C3=C(O)CC(C)(C)CC3=O)ccc21 [Compound 26]	100%	100%	85%	30%	93%	88%
